For one test, the target named is T1, human LXR alpha (Homo sapiens, UniProt Q13133).
T1 construct: human LXR alpha (aa 164 to 447); made in house; host or cells: E. coli BL21 (pLysS)
T1 sequence (Q13133 164-447): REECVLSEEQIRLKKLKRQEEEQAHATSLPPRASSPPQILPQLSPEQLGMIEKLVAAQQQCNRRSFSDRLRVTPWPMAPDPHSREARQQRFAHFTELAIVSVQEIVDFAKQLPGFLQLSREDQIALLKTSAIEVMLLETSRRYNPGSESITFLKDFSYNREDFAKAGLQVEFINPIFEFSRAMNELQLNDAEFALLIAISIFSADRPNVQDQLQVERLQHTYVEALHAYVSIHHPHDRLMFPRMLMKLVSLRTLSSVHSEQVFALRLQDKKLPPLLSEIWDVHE
Nature of the test: Radioligand binding assay (scintillation proximity), LXRα-LBD. The conditions noted are these: LXRα-LBD on SPA beads, read-out: LXRalpha Binding IC50. As to the method: (§1) The following tests were carried out in order to determine the activity of the compounds of the present invention. […] Mammalian expression vectors were constructed to express full-length human LXR alpha and LXR beta. […] To accomplish this, the portions of the sequences encoding the LBDs were amplified from the full-length clones by PCR and then subcloned into the plasmid vectors.
(§2) Induction, expression, and purification of LBD proteins were performed in E. coli strain BL21 (pLysS) cells by standard methods (Ref: Current Protocols in Molecular Biology, Wiley Press, edited by Ausubel et al).
(§3) Radioligand Binding Assay
(§4) LXR alpha and LXR beta receptor binding were assayed in buffer consisting of 50 mM HEPES, pH 7.4, 10 mM NaCl, 5 mM MgCl2. For each 96-well reaction, 500 ng of LXRα-LBD or 700 ng of LXR beta-LBD proteins were bound to 80 μg or 40 μg SPA beads respectively, in a final volume of 50 μl by shaking. The resulting slurry was incubated for 1 h at RT and centrifuged for 2 min at 1300×g. The supernatant containing unbound protein was removed, and the semi-dry pellet containing the receptor-coated beads was re-suspended in 50 μl of buffer. Radioligand (eg. 100,000 dpm of (N-(2,2,2-trifluoroethyl)-N-[4-(2,2,2-trifluoro-1-hydroxy-1-trifluoromethylethyl)-phenyl]-benzenesulfonamide)) was added, and the reaction incubated at RT for 1 h in the presence of test compounds, and then scintillation proximity counting was performed. All binding assays were performed in 96-well plates and the amount of bound ligand was measured on a Packard TopCount using OptiPlates (Packard). Dose response curves were measured within a range of concentration from 10^−10 M to 10^−4 M.
For orientation: SPA uses beads or plates that emit light when radiolabelled molecules are held near them.

The target in another test is T2, human LXR beta (Homo sapiens, UniProt P55055).
T2 construct: human LXR beta (aa 155 to 460); made in house; host or cells: E. coli BL21 (pLysS)
T2 sequence (P55055 155-460): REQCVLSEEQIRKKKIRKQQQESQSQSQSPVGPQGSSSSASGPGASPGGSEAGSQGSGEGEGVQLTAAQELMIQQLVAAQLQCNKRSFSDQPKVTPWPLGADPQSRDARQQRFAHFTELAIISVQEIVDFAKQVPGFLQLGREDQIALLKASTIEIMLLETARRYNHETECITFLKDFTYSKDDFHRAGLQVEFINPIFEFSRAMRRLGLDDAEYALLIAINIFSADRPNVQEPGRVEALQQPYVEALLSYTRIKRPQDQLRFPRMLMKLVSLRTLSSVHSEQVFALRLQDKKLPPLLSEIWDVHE
In words: Radioligand binding assay (scintillation proximity), LXR beta-LBD. The conditions noted are these: LXR beta-LBD on SPA beads, read-out: LXRbeta Binding IC50. On the procedure:
as §1, §2, §3, §4

As a reminder, the IC50 is the midpoint of a concentration-inhibition curve. Turning to `CC(C)CN(Cc1ccc(-c2cccc(S(C)(=O)=O)c2)s1)S(=O)(=O)c1ccccc1C(F)(F)F` [Example 31, N-Isobutyl-N-[5-(3-methanesulfonyl-phenyl)-thiophen-2-ylmethyl]-2-trifluoromethyl-benzenesulfonamide], the IC50 was determined as 1460 nM on human LXR alpha and 85 nM on human LXR beta.
On to `CC(C)CN(Cc1cc(-c2cncc(S(C)(=O)=O)c2)cs1)S(=O)(=O)c1ccccc1Cl` [Example 55, 2-Chloro-N-isobutyl-N-[4-(5-methanesulfonyl-pyridin-3-yl)-thiophen-2-ylmethyl]-benzenesulfonamide], for which the half-inhibitory concentration (IC50) on human LXR alpha was determined as 2530 nM; on human LXR beta it was 83 nM.
For `CS(=O)(=O)Nc1cccc(-c2ccc(CN(Cc3ccccc3)S(=O)(=O)c3ccccc3C(F)(F)F)s2)c1` [Example 2, N-Benzyl-N-[5-(3-methanesulfonylamino-phenyl)-thiophen-2-ylmethyl]-2-trifluoromethyl-benzenesulfonamide], the 50% inhibitory concentration (IC50) was 170 nM on human LXR alpha and 126 nM at human LXR beta.
Taken in the same sequence, the figures for `CC(C)CN(Cc1ccc(-c2cccc(S(C)(=O)=O)c2)s1)S(=O)(=O)c1ccccc1F` [Example 17, 2-Fluoro-N-isobutyl-N-[5-(3-methanesulfonyl-phenyl)-thiophen-2-ylmethyl]-benzenesulfonamide] were 2210 nM and 28 nM.
Taken in the same sequence, the figures for `CC(C)CN(Cc1ccc(-c2cccc(S(C)(=O)=O)c2)cn1)S(=O)(=O)c1ccccc1Cl` [Example 45, 2-Chloro-N-isobutyl-N-[5-(3-methanesulfonyl-phenyl)-pyridin-2-ylmethyl]-benzenesulfonamide] were 425 nM and 2.3 nM.
With `CS(=O)(=O)c1cccc(-c2nnc(CN(Cc3ccccc3)S(=O)(=O)c3ccccc3C(F)(F)F)o2)c1` [Example 3, N-Benzyl-N-[5-(3-methanesulfonyl-phenyl)-[1,3,4]oxadiazol-2-ylmethyl]-2-trifluoromethyl-benzenesulfonamide], the figures for the IC50 on human LXR alpha and at human LXR beta were 5720 nM and 5410 nM, respectively.
Taken in the same sequence, the figures for `CC(C)CN(Cc1ccc(-c2cccc(S(C)(=O)=O)c2)o1)S(=O)(=O)c1ccccc1Cl` [Example 13, 2-Chloro-N-isobutyl-N-[5-(3-methanesulfonyl-phenyl)-furan-2-ylmethyl]-benzenesulfonamide] were 3490 nM and 40.5 nM.
The like results for `CCCCS(=O)(=O)N(Cc1ccc(-c2cccc(S(C)(=O)=O)c2)s1)CC(C)C` [Example 25, Butane-1-sulfonic acid isobutyl-[5-(3-methanesulfonyl-phenyl)-thiophen-2-ylmethyl]-amide] were, in that order, 2750 nM and 80 nM.
Taken in the same sequence, the figures for `CS(=O)(=O)c1cccc(-c2ccc(CN(CCN3CCCC3)S(=O)(=O)c3ccccc3C(F)(F)F)s2)c1` [Example 40, N-[5-(3-Methanesulfonyl-phenyl)-thiophen-2-ylmethyl]-N-(2-pyrrolidin-1-yl-ethyl)-2-trifluoromethyl-benzenesulfonamide] were 10700 nM and 285 nM.
For the compound `CS(=O)(=O)c1cccc(-c2ccc(CN(CC3CC3)S(=O)(=O)c3ccccc3C(F)(F)F)s2)c1` [Example 32, N-Cyclopropylmethyl-N-[5-(3-methanesulfonyl-phenyl)-thiophen-2-ylmethyl]-2-trifluoromethyl-benzenesulfonamide], the concentration for half-maximal inhibition (IC50) came to 845 nM on human LXR alpha and 106 nM on human LXR beta.
As to `CC(C)CN(Cc1ccc(-c2cccc(S(C)(=O)=O)c2)s1)S(=O)(=O)c1c(Cl)cccc1Cl` [Example 18, 2,6-Dichloro-N-isobutyl-N-[5-(3-methanesulfonyl-phenyl)-thiophen-2-ylmethyl]-benzenesulfonamide], the results for the IC50 on human LXR alpha and at human LXR beta were 1440 nM and 82 nM, respectively.
For `CS(=O)(=O)c1cccc(-c2ccc(CN(CC3OCCO3)S(=O)(=O)c3ccccc3C(F)(F)F)s2)c1` [Example 39, N-[1,3]Dioxolan-2-ylmethyl-N-[5-(3-methanesulfonyl-phenyl)-thiophen-2-ylmethyl]-2-trifluoromethyl-benzenesulfonamide], the values for the IC50 at human LXR alpha and at human LXR beta were 820 nM and 47 nM, respectively.
With `CS(=O)(=O)c1cccc(-c2ccc(CN(Cc3ccccc3)S(=O)(=O)c3cccc(Cl)c3)s2)c1` [Example 7, N-Benzyl-3-chloro-N-[5-(3-methanesulfonyl-phenyl)-thiophen-2-ylmethyl]-benzenesulfonamide], the IC50 was 4280 nM at human LXR alpha and 1510 nM on human LXR beta.
Taken in the same sequence, the figures for `CC(C)(C)OC(=O)CN(Cc1ccc(-c2cccc(S(C)(=O)=O)c2)s1)S(=O)(=O)c1ccccc1C(F)(F)F` [Example 37, [[5-(3-Methanesulfonyl-phenyl)-thiophen-2-ylmethyl]-(2-trifluoromethyl-benzenesulfonyl)-amino]-acetic acid tert-butyl ester] were 17.5 nM and 11.5 nM.
With `CS(=O)(=O)c1cccc(-c2ncc(CN(C(=O)c3ccccc3)S(=O)(=O)c3ccccc3Cl)s2)c1` [Example 12, N-Benzoyl-2-chloro-N-[2-(3-methanesulfonyl-phenyl)-thiazol-5-ylmethyl]-benzenesulfonamide], the IC50 stood at 27300 nM on human LXR alpha and 120 nM on human LXR beta.
Consider `CC(C)CN(Cc1ccnc(-c2cccc(S(C)(=O)=O)c2)c1)S(=O)(=O)c1ccccc1Cl` [Example 48, 2-Chloro-N-isobutyl-N-[2-(3-methanesulfonyl-phenyl)-pyridin-4-ylmethyl]-benzenesulfonamide], for which the IC50 was found to be 7860 nM at human LXR alpha and 150 nM on human LXR beta.
Turning to `CS(=O)(=O)c1cccc(-c2ncc(CN(Cc3ccccc3)S(=O)(=O)c3ccccc3Cl)s2)c1` [Example 10, N-Benzyl-2-chloro-N-[2-(3-methanesulfonyl-phenyl)-thiazol-5-ylmethyl]-benzenesulfonamide], the values for the half-maximal inhibitory concentration (IC50) at human LXR alpha and on human LXR beta were 2700 nM and 56.5 nM, respectively.
Taken in the same sequence, the figures for `CC(C)CN(Cc1cccc(-c2cccc(S(C)(=O)=O)c2)c1)S(=O)(=O)c1ccccc1Cl` [Example 43, 2-Chloro-N-isobutyl-N-(3′-methanesulfonyl-biphenyl-3-ylmethyl)-benzenesulfonamide] were 26 nM and 19 nM.
Taken in the same sequence, the figures for `Cc1ccc(F)cc1S(=O)(=O)N(Cc1ccc(-c2cccc(S(C)(=O)=O)c2)s1)CC(C)C` [Example 24, 5-Fluoro-N-isobutyl-N-[5-(3-methanesulfonyl-phenyl)-thiophen-2-ylmethyl]-2-methyl-benzenesulfonamide] were 165 nM and 28.5 nM.
Taken in the same sequence, the figures for `CCS(=O)(=O)N(Cc1ccc(-c2cccc(S(C)(=O)=O)c2)s1)CC(C)C` [Example 16, Ethanesulfonic acid isobutyl-[5-(3-methanesulfonyl-phenyl)-thiophen-2-ylmethyl]-amide] were 25000 nM and 2860 nM.
As to `CC(C)CN(Cc1ccc(-c2cccc(S(C)(=O)=O)c2)s1)S(C)(=O)=O` [Example 15, N-Isobutyl-N-[5-(3-methanesulfonyl-phenyl)-thiophen-2-ylmethyl]-methanesulfonamide], the half-maximal inhibitory concentration (IC50) was found to be 48700 nM at human LXR alpha and 7060 nM at human LXR beta.
Taken in the same sequence, the figures for `CCN(Cc1ccc(-c2cccc(S(C)(=O)=O)c2)s1)S(=O)(=O)c1ccccc1C(F)(F)F` [Example 28, N-Ethyl-N-[5-(3-methanesulfonyl-phenyl)-thiophen-2-ylmethyl]-2-trifluoromethyl-benzenesulfonamide] were 19900 nM and 440 nM.
On to `CC(C)S(=O)(=O)N(Cc1ccc(F)cc1)Cc1cccc(-c2cccc(S(C)(=O)=O)c2)c1` [Example 53, Propane-2-sulfonic acid (4-fluoro-benzyl)-(3′-methanesulfonyl-biphenyl-3-ylmethyl)-amide], for which the concentration for half-maximal inhibition (IC50) at human LXR alpha was determined as 2800 nM; on human LXR beta, 255 nM.

Source of the values: US8039493B2, “Biaryl sulfonamide derivatives” (Hoffmann-La Roche Inc., priority 2008, dated 2011).
